We go through two molecules from patent US20040185558A1, “Method for culturing brain tissue in three dimensions” (priority 2003, published 2004).

In this experiment the test system is hippocampal tissue grown under SMC. Kind of experiment: field EPSP evoked by electrical stimulation in hippocampal tissue cultured 10 days under simulated microgravity conditions. Type of experiment: cell-based, Sprauge-Dawley rats. The text has this: In order to determine whether hippocampal tissue grown under SMC is able to generate electrical signals, hippocampal tissue grown under SMC for 10 days as described was electrically stimulated and field excitatory postsynaptic potential (EPSP) recorded. […] One important characteristic of the response is the presence of paired-pulse facilitation (PPF) (FIGS. 3A and 3B). PDF have been described and characterized in acute slices from the hippocampus and are an example of frequency-dependent short-term plasticity of excitatory synapses. This phenomenon is accounted for by the residual calcium hypothesis, according to which the small fraction of calcium entering the terminal during the first spike increases the probability of transmitter release to a second action potential (Zucker, 1989). […]
Sprauge-Dawley rats (7-9 days old) are quickly decapitated and the brain is rapidly removed and placed in ice-cold Gey's solution (g/L): NaCl (7), KCl (0.37), MgSO4-7H2O (0.06), MgCl2-6H2O (0.21), KH2PO4 (0.03), Na2HPO4-7H2O (0.23), Glucose (1), CaCl2-2H2O (0.23) and NaHCO3 ([…]). […] The slices will be monitored daily and rotary speed will be adjusted in order to avoid any free falling. […]

For the molecule `[Cl][Co][Cl]` [CoCl2, cobalt chloride], the “effect on field EPSP (dependence on voltage gated calcium current)” value (perfused with 1 mM CoCl2, hippocampal tissue grown under SMC 10 days, reversible after washout) is on record as “reversibly blocked”. As for `NC(CCCP(=O)(O)O)C(=O)O` (centres unmarked) [APV, amino-5-phosphonovaleric acid], the “effect on field EPSP (NMDA subtype glutamate receptor antagonist)” value (100 μM APV, hippocampal tissue grown under SMC, vs no antagonist) is recorded as “partially block”.
